Test results as given in ChEMBL document CHEMBL1157539, “Thousands of chemical starting points for antimalarial lead identification” (Nature, 2010).

System: Plasmodium falciparum
Experiment: GSK_TCMDC: Inhibition of Plasmodium falciparum 3D7 in whole erythrocytes, using parasite LDH activity as an index of growth.
Format: functional, organism-based
Conditions: Plasmodium falciparum, 3D7

Row | SMILES | XC50
1 | CCN1CCC(N(Cc2ccc(-c3ccc(C(F)(F)F)cc3)cc2)C(=O)Cn2nc(C)c(=O)cc2SCc2ccc(F)cc2)CC1 | 1010 nM
2 | CN1CCC(N(Cc2ccc(-c3ccc(Cl)cc3)cc2)C(=O)Cn2c(CCc3cccc(F)c3F)cc(=O)c3ccccc32)CC1 | 865 nM
3 | Cc1cccc(C)c1C1CCN(C2CCC(NC(=O)/C=C/c3ccccc3)CC2)CC1 (stereo not drawn) | 581 nM
4 | Cc1ccc2c(=NN=Cc3ccc(Cl)cc3)cc(C)[nH]c2c1 | 945 nM
5 | O=c1cc(NCCCNCc2cn(S(=O)(=O)c3ccccc3)c3ccccc23)[nH]c2ccccc12 | 879 nM
6 | N#Cc1cncc(-c2nc3c(N4CCC(Cc5ccccc5)CC4)cccc3n2CCNCc2ccccc2)c1 | 573 nM
7 | COc1ccc(CNCCCCCCNCc2ccc(OC)c3ccccc23)c2ccccc12 | 581 nM
8 | CC(C)C1=CC(=NOS(=O)(=O)c2ccccc2)C=C(C(C)C)C1=O | 712 nM
9 | COc1ccc(NC(=O)[C@H](CC(C)C)Nc2cc(C)nc(Nc3ccccc3)n2)cc1 | 866 nM
10 | O=c1cc(NCCC2CC=CCN2Cc2ccc(Cl)c(Cl)c2)[nH]c2ccccc12 (stereo not drawn) | 1730 nM
11 | CCCCCCCc1cc(=O)c2ccccc2[nH]1 | 317 nM
12 | CN1CCCC(CN2CCN(Cc3ccc(-c4ccc(-c5nc6ccccc6[nH]5)s4)cc3)CC2)C1 (stereo not drawn) | 133 nM
13 | COc1ccc(-c2csc(NC(=O)CCC(=O)O)n2)cc1OC | 842 nM
14 | FC(F)(F)c1ccc(Nc2nnnc3ccccc23)cc1 | 692 nM
15 | CN(c1ccc(F)cc1)S(=O)(=O)c1ccc(Cl)c(C(=O)Nc2cccc(C#N)c2)c1 | 699 nM
16 | CC(C)C[C@H](NC(=O)c1ccc(OCCN2CCOCC2)cc1)C(=O)N[C@H](/C=N/NC(=O)c1ccccc1)CCc1ccccc1 | 62.1 nM
17 | CC(NC(=O)NC1CCC(CCN2CCCc3ccccc32)CC1)c1cccc2ccccc12 (stereo not drawn) | 1020 nM
18 | COc1ccc(NC(=O)/C=C/c2ccc(Cl)c(Cl)c2)cc1N1CCN(C)CC1 | 980 nM
19 | Cc1cc(N[C@@H](CC(C)C)C(=O)NCCOc2ccccc2)nc(Nc2ccccc2)n1 | 1110 nM
20 | COc1ccc2cc(CNCCCCCCNCc3ccc4cc(OC)ccc4c3)ccc2c1 | 624 nM
21 | COC(=O)c1ccc(CC(C)NCC(O)c2ccc(C(O)CNC(C)Cc3ccc(C(=O)OC)cc3)cc2)cc1 (stereo not drawn) | 1030 nM
22 | O=C(Nc1ccc(OC2CCN(Cc3ccc(F)cc3)C2)cc1)c1cccs1 (stereo not drawn) | 642 nM
23 | COc1ccc(C=NN=c2cc[nH]c3ccccc23)c2ccccc12 | 696 nM
24 | N#Cc1ccc(NC(=O)c2ccc(C(=O)NCCCCN3CCC(c4ccc5c(c4OCCOC4CCCCO4)CCCC5)CC3)cc2)cc1 (stereo not drawn) | 580 nM
25 | O=C(CC1CCCCC1)NCC(NCCCNc1cc(=O)c2ccccc2[nH]1)c1cc(Br)cc(Br)c1 (stereo not drawn) | 1050 nM

Row | SMILES | XC50
26 | CN(C)CCNC(=O)N1CCCN(c2ncnc3cc(-c4ccccc4)sc23)CC1 | 786 nM
27 | Cc1cc2nc(-c3ccc(C(=O)NCCCc4ccccc4)cc3)[nH]c2cc1C | 1180 nM
28 | CC(C)Nc1nc(NC2CCCCC2)nc(N2CCCCCCC2)n1 | 1090 nM
29 | CN(Cc1cccc(F)c1)C1CCN(c2cc(NC(=O)c3ccc(F)cc3)ccn2)C1 (stereo not drawn) | 1230 nM
30 | CCCCC1=CC2C(=O)C(C(=O)OC)=CN=C2C=C1OCc1ccccc1 (stereo not drawn) | 42.2 nM
31 | Cc1cc(NCCC(=O)NCc2cccc(F)c2)nc(Nc2ccccc2)n1 | 1050 nM
32 | N#Cc1ccc(-c2nc3c(N4CCCC4)cccc3n2CCNCc2ccccc2)cc1 | 593 nM
33 | Cc1noc(C)c1-c1cccc(CNCc2cccc(-c3ccc(-c4nc5cccc(C)c5[nH]4)cc3)c2)c1 | 191 nM
34 | Cc1cc(N[C@@H](Cc2ccccc2)C(=O)NCCc2ccccc2)nc(NCc2ccccc2C)n1 | 879 nM
35 | CCCc1ccc(S(=O)(=O)NC2CCN(c3ccnc(Nc4ccc(F)cc4)n3)C2)cc1 (stereo not drawn) | 1010 nM
36 | Cc1nc(C)c(CC(=O)Nc2ccc(-c3cccc(-c4nc5cc(C(F)(F)F)ccc5[nH]4)c3)cc2)s1 | 925 nM
37 | COc1cc(Cc2cnc(N)nc2N)ccc1OCC(=O)Nc1ccc(C)cc1 | 478 nM
38 | COc1cc(Nc2ccnc3ccc(C(F)(F)F)cc23)cc(OC)c1OC | 698 nM
39 | Cc1cccc2nc(-c3ccc(-c4ccc(C(=O)NCCc5cn(C)cn5)cc4)s3)[nH]c12 | 960 nM
40 | COc1ccc(Nc2nc(NC3CCN(C)CC3)cc(-c3ccc(OC)cc3)n2)cc1 | 545 nM
41 | CC1CCN(CC[C@H]2CCCN2S(=O)(=O)c2cccc(NC(=O)c3ccc(-c4ccccc4)cc3)c2)CC1 | 1260 nM
42 | COc1ccc2nccc([C@@H](O)CN3CCC(NC(=O)CCC(=O)c4cc(C(C)(C)C)ccc4OC)CC3)c2c1 | 846 nM
43 | Oc1cccc(Nc2nc(NCc3ccccc3)c3ccccc3n2)c1 | 41.3 nM
44 | Cc1ccccc1C1CCN(C2CCC(NC(=O)c3ccc(-c4cc(C(F)(F)F)nn4C)s3)CC2)CC1 (stereo not drawn) | 846 nM
45 | O=C(CN1CCN(C(C(=O)Nc2cc(C(F)(F)F)ccc2Cl)c2ccccc2)CC1)NC1CC1 (stereo not drawn) | 443 nM
46 | COc1ccc(CN(C)Cc2cc(C(C)C)c(C)cc2O)cc1F | 654 nM
47 | N#Cc1ccc(-c2ccc(C(=O)NCCCCN3CCC(c4ccc5c(c4OCC(N)=O)CCCC5)CC3)cc2)cc1 | 984 nM
48 | Cc1noc(-c2cccs2)c1C(=O)NCCc1cccc(Cl)c1 | 463 nM
49 | CN1CCN(c2ccc(Nc3ncc([N+](=O)[O-])c(Nc4ccccc4O)n3)cc2)CC1 | 723 nM
50 | Oc1ccc(CCNCCCCCCNCCc2ccc(Br)cc2)cc1O | 1020 nM

Row | SMILES | XC50
51 | O=C(NCCN1CCCCC1)c1ccc(Nc2nccc(Nc3ccc(Oc4ccccc4)cc3)n2)cc1 | 553 nM
52 | COc1ccc(CNCCCCCCCNCc2ccc(Cl)c(Cl)c2)cc1Cl | 1220 nM
53 | Cc1cccc2nc(-c3ccc(-c4ccc(CN5CCN(CCN6CCOCC6)CC5)cc4)s3)[nH]c12 | 245 nM
54 | CN1CCC(C(=O)N(Cc2ccc(-c3ccc(CNCCc4ccc(S(C)(=O)=O)cc4)cn3)cc2)Cc2cccc(F)c2)CC1 | 706 nM
55 | O=C(Cc1c[nH]cn1)Nc1cccc(-c2ccc(-c3nc4cc(C(F)(F)F)ccc4[nH]3)cc2)c1 | 700 nM
56 | CCn1c(-c2nonc2N)nc2c(-c3ccc(CO)o3)ncc(OCCCN)c21 | 1360 nM
57 | CC[C@H]1CN2CC[C@@H]1C[C@H]2[C@H](O)c1cc(N2CCC(c3ccccc3)CC2)nc2ccc(OC)cc12 | 346 nM
58 | CN1CCN(Cc2cccc(-c3ccc4c(Nc5ccc(Oc6ccccc6)cc5)ccnc4c3)c2)CC1 | 226 nM
59 | CC[C@H]1CN(CCCC(=O)c2ccccc2)CC[C@H]1CCCc1ccnc2ccc(OC(=O)c3ccccc3)cc12 | 832 nM
60 | NC1(C(=O)O)Cc2ccc(Cl)cc2C1 (stereo not drawn) | 734 nM
61 | CCCc1cc(Cc2cnc(N)nc2N)cc(CC)c1O | 1320 nM
62 | COc1ccc(C2CC(c3cccs3)=NN2C(=O)c2ccccc2)cc1OC (stereo not drawn) | 661 nM
63 | Cc1nnc(Sc2ncnc3scc(-c4ccc(F)cc4)c23)s1 | 811 nM
64 | Cc1cc(Cl)ccc1NC(=O)NCCCCCN1CCC(c2c[nH]c3ccccc23)CC1 | 1010 nM
65 | Cc1cccc2nc(-c3cccc(-c4ccc(C(=O)NCc5ccccc5S(C)(=O)=O)cc4)c3)[nH]c12 | 750 nM
66 | CCc1cn2c3c(cc(C(=O)N[C@@H](Cc4cccc(F)c4)[C@H](O)CNC4CCOCC4)cc13)N(C)S(=O)(=O)CC2 | 68.1 nM
67 | N#Cc1ccc2c(c1)CN(CCCCNC(=O)c1ccc(-c3ccccc3)cc1)CC2 | 894 nM
68 | CC1CCN(Cc2cccc(C(=O)NCc3ccc(F)c(-c4cccc(CN5CCN[C@@H](C)C5)c4)c3)c2)CC1 | 1460 nM
69 | O=C(Nc1nc2cc(S(=O)(=O)NCCc3cccc(F)c3)ccc2n1CCCn1ccnc1)c1ccc(Cl)cc1 | 1270 nM
70 | c1cc(-c2ccc(CN3CCCC3)cc2)cc(-c2nc3ccccc3[nH]2)c1 | 690 nM
71 | CCOc1ccc2[nH]c(C)cc(=NN=Cc3ccccc3)c2c1 | 785 nM
72 | N#Cc1ccc(N2CCN(Cc3ccc(-c4ccc(-c5nc6cc(C(F)(F)F)ccc6[nH]5)cc4)cc3)CC2)nc1 | 963 nM
73 | CCn1c(CN2CCN(Cc3ccccc3)CC2)nc2cc(NC(=O)c3cccs3)ccc21 | 402 nM
74 | COc1ccc2nc(SC(C)C(=O)c3c[nH]c4ccccc34)[nH]c2c1 (stereo not drawn) | 1280 nM
75 | COc1ccc(NC(=O)[C@H](CC(C)C)Nc2cc(C)nc(NCCc3ccccc3OC)n2)cc1 | 988 nM

Row | SMILES | XC50
76 | FC(F)(F)COc1ccc(CCNCCCCNCCc2ccc(OCC(F)(F)F)c3ccccc23)c2ccccc12 | 648 nM
77 | COc1ccc(CCNCCCCCCNCCc2ccc(Cl)c(Cl)c2)cc1OC | 926 nM
78 | OCCN1CCN(Cc2ccc(-c3cccc(-c4nc5ccccc5[nH]4)c3)cc2)CC1 | 749 nM
79 | CN(C)CCN(C)Cc1ccc(-c2ccc3c(Nc4ccc(Oc5ccccc5)cc4)ccnc3c2)o1 | 179 nM
80 | Nc1c2c(nc3ccc(NC(=O)CCCc4ccccc4)cc13)CCCC2 | 429 nM
81 | COc1ccc(C(=O)N2CCC(CN3CCOC(c4ccccc4)(c4ccccc4)C3)CC2)cc1 | 171 nM
82 | N#Cc1cccc(-c2nc(NCc3cccc(C(F)(F)F)c3)nn2-c2cccc(C(F)(F)F)c2)c1 | 592 nM
83 | CCCCCCCN1CC[C@@H](CCCc2ccnc3ccc(OC)cc23)[C@@H](CCN)C1 | 748 nM
84 | O=C(CCCC(=O)Nc1ccc(C2=NCCN2)cc1)Nc1ccc(C2=NCCN2)cc1 | 106 nM
85 | Cc1cc2c(cc1Cl)N(C(=O)Nc1cc(F)cc(-c3cncnc3)c1)CC2 | 377 nM
86 | O=C(c1ccc2ccccc2n1)N1CCCc2cc(Br)ccc21 | 858 nM
87 | OCCN1CCN(c2ccc(Nc3ccnc4cc5ccccc5cc34)cc2)CC1 | 41 nM
88 | N#Cc1c(-c2ccccc2)cn2c1[nH]c(=O)c1ccccc12 | 109 nM
89 | O=[N+]([O-])c1cccc(NC(=S)N2CCCN(Cc3ccc(Cl)cc3Cl)CC2)c1 | 925 nM
90 | Nc1ccnc2ccc(OCCCCCCc3ccccc3)cc12 | 524 nM
91 | O=C(Nc1ccc(OC2CCN(Cc3ccc(F)cc3)C2)cc1)c1ccco1 (stereo not drawn) | 1040 nM
92 | COc1cc(NC(=O)Nc2ccc(Br)cc2C(=O)Nc2ccc(Br)cc2)cc(OC)c1OC | 761 nM
93 | N#Cc1ccc(C(=O)Nc2ccc(-c3cccc(CN4CCCC4)c3)cc2)cc1 | 1000 nM
94 | CC1(C)CCCN(C(=O)c2cccc(-n3nc(-c4ccc(Cl)cc4)cc3N)c2)C1 | 712 nM
95 | O=C(/C=C/c1ccc(Cl)c(Cl)c1)NCCCCCCN1CCN(C(=O)Nc2ccc(OC(F)F)cc2)CC1 | 679 nM
96 | Cc1c(S(=O)(=O)Nc2ccc3nccc(N4CCN[C@H](C)C4)c3c2)sc2ccc(Cl)cc12 | 842 nM
97 | CC(C)NC(=O)c1cccc(-c2ccc(OCCN3CCCC3c3cc4ccccc4[nH]3)cc2)c1 (stereo not drawn) | 958 nM
98 | CN1CCN(c2ccnc3ccc(NC(=O)Nc4cccc5c(-c6ccncc6)cccc45)cc23)CC1 | 877 nM
